Like-named read-outs stand apart in the source and are kept apart here.
Molecular target: BRAF V600E (Homo sapiens, UniProt P15056, V600E)
Experiment: HiBiT cellular BRAF^V600E degradation assay
Format: cell-based
Details: for DC50: concentration at which 50% of total cellular BRAF^V600E is degraded; for Emax: read-out: HiBit 24 h Emax
[1] = A375.10 cells, 24 h, residual protein remaining in the cell

Chain of BRAF V600E (P15056 whole entry V600E): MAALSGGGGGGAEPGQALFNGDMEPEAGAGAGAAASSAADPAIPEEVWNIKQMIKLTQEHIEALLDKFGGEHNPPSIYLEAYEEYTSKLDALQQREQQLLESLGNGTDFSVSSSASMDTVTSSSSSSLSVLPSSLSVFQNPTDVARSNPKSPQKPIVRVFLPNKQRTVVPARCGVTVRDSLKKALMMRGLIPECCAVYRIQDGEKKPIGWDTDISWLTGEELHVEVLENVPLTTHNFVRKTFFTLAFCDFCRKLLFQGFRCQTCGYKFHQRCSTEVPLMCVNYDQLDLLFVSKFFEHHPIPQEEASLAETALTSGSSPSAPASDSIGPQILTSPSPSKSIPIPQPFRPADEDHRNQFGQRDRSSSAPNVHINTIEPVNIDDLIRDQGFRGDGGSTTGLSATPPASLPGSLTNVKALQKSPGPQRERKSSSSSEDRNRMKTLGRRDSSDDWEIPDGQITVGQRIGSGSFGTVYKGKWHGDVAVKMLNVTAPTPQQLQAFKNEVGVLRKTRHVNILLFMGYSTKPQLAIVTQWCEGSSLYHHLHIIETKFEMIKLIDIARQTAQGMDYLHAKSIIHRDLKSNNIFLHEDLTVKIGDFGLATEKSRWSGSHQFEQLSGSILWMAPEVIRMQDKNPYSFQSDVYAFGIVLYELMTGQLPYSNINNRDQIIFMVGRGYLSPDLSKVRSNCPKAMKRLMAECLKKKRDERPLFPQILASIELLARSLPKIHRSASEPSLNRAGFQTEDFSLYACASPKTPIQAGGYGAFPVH

Row | Compound | DC50 (A375.10 cells, 24 h) | Emax [1] | Emax
1 | CCN(C)S(=O)(=O)Nc1ccc(F)c(Oc2ccc3ncn(CCCC4CCN(C(=O)CN5CCC(c6ccc(NC7CCC(=O)NC7=O)cc6)CC5)CC4)c(=O)c3c2)c1C#N (stereo not shown) [Example 4, 6-[2-cyano-3-[[ethyl(methyl)sulfamoyl]amino]-6-fluorophenoxy]-3-[3-[1-[2-[4-[4-[(2,6-dioxopiperidin-3-yl)amino]phenyl]piperidin-1-yl]acetyl]piperidin-4-yl]propyl]-4-oxoquinazoline] | 0.0286 µM | 10.8% | –
2 | CCN(C)S(=O)(=O)Nc1ccc(F)c(Oc2ccc3ncn(CCCC4CCN(C(=O)CN5CCC(c6ccc(C7CCC(=O)NC7=O)cc6F)CC5)CC4)c(=O)c3c2)c1C#N (stereo not shown) [Example 5, 6-[2-cyano-3-[[ethyl(methyl)sulfamoyl]amino]-6-fluorophenoxy]-3-[3-[1-[2-[4-[4-(2,6-dioxopiperidin-3-yl)-2-fluorophenyl]piperidin-1-yl]acetyl]piperidin-4-yl]propyl]-4-oxoquinazoline] | 0.0493 µM | 13.1% | –
3 | CCN(C)S(=O)(=O)Nc1ccc(F)c(Oc2ccc3ncn(CCCC4CCN(C(=O)CN5CCC(c6ccc(NC7CCC(=O)NC7=O)cc6F)CC5)CC4)c(=O)c3c2)c1C#N (stereo not shown) [Example 6, 6-[2-cyano-3-[[ethyl(methyl)sulfamoyl]amino]-6-fluorophenoxy]-3-[3-[1-[2-[4-[4-[(2,6-dioxopiperidin-3-yl)amino]-2-fluorophenyl]piperidin-1-yl]acetyl]piperidin-4-yl]propyl]-4-oxoquinazoline] | 0.0227 µM | 11.5% | –
4 | CCN(C)S(=O)(=O)Nc1ccc(F)c(Oc2ccc3ncn(CCCC4CCN(CC(=O)N5CCC(c6ccc(NC7CCC(=O)NC7=O)cc6)CC5)CC4)c(=O)c3c2)c1C#N (stereo not shown) [Example 7, 6-[2-cyano-3-[[ethyl(methyl)sulfamoyl]amino]-6-fluorophenoxy]-3-[3-[1-[2-[4-[4-[(2,6-dioxopiperidin-3-yl)amino]phenyl]piperidin-1-yl]-2-oxoethyl]piperidin-4-yl]propyl]-4-oxoquinazoline] | 0.0422 µM | 15.2% | –
5 | CCN(C)S(=O)(=O)Nc1ccc(F)c(Oc2ccc3ncn(CCN4CCN(C(=O)CN5CCC(c6ccc(NC7CCC(=O)NC7=O)cc6F)CC5)CC4)c(=O)c3c2)c1C#N (stereo not shown) [Example 8, 6-[2-cyano-3-[[ethyl(methyl)sulfamoyl]amino]-6-fluorophenoxy]-3-[2-[4-[2-[4-[4-[(2,6-dioxopiperidin-3-yl)amino]-2-fluorophenyl]piperidin-1-yl]acetyl]piperazin-1-yl]ethyl]-4-oxoquinazoline] | 0.0279 µM | 10% | –
6 | CCN(C)S(=O)(=O)Nc1ccc(F)c(Oc2ccc3ncn(CCN4CCN(C(=O)CN5CCC(c6ccc(NC7CCC(=O)NC7=O)cc6)CC5)CC4)c(=O)c3c2)c1C#N (stereo not shown) [Example 9, 6-[2-cyano-3-[[ethyl(methyl)sulfamoyl]amino]-6-fluorophenoxy]-3-[2-[4-[2-[4-[4-[(2,6-dioxopiperidin-3-yl)amino]phenyl]piperidin-1-yl]acetyl]piperazin-1-yl]ethyl]-4-oxoquinazoline] | 0.0419 µM | 9.87% | –
7 | CCN(C)S(=O)(=O)Nc1ccc(F)c(Oc2ccc3ncn(C(C)CCC4CCN(C(=O)CN5CCC(c6ccc(NC7CCC(=O)NC7=O)cc6F)CC5)CC4)c(=O)c3c2)c1C#N (stereo not shown) [Example 10, 6-[2-cyano-3-[[ethyl(methyl)sulfamoyl]amino]-6-fluorophenoxy]-3-[4-[1-[2-[4-[4-[(2,6-dioxopiperidin-3-yl)amino]-2-fluorophenyl]piperidin-1-yl]acetyl]piperidin-4-yl]butan-2-yl]-4-oxoquinazoline] | 0.0419 µM | 12.6% | –
8 | CCN(C)S(=O)(=O)Nc1ccc(F)c(Oc2ccc3ncn(CCC(C)C4CCN(C(=O)CN5CCC(c6ccc(NC7CCC(=O)NC7=O)cc6F)CC5)CC4)c(=O)c3c2)c1C#N (stereo not shown) [Example 11, 6-[2-cyano-3-[[ethyl(methyl)sulfamoyl]amino]-6-fluorophenoxy]-3-[3-[1-[2-[4-[4-[(2,6-dioxopiperidin-3-yl)amino]-2-fluorophenyl]piperidin-1-yl]acetyl]piperidin-4-yl]butyl]-4-oxoquinazoline] | 0.0101 µM | 9.52% | –
9 | CCN(C)S(=O)(=O)Nc1ccc(F)c(Oc2ccc3ncn(CCCC4(C)CCN(C(=O)CN5CCC(c6ccc(NC7CCC(=O)NC7=O)cc6F)CC5)CC4)c(=O)c3c2)c1C#N (stereo not shown) [Example 12, 6-[2-cyano-3-[[ethyl(methyl)sulfamoyl]amino]-6-fluorophenoxy]-3-[3-[1-[2-[4-[4-[(2,6-dioxopiperidin-3-yl)amino]-2-fluorophenyl]piperidin-1-yl]acetyl]-4-methylpiperidin-4-yl]propyl]-4-oxoquinazoline] | 0.0292 µM | 8.33% | –
10 | CCN(C)S(=O)(=O)Nc1ccc(F)c(Oc2ccc3ncn(CCC4(F)CCN(C(=O)CN5CCC(c6ccc(NC7CCC(=O)NC7=O)cc6F)CC5)CC4)c(=O)c3c2)c1C#N (stereo not shown) [Example 13, 6-[2-cyano-3-[[ethyl(methyl)sulfamoyl]amino]-6-fluorophenoxy]-3-[2-[1-[2-[4-[4-[(2,6-dioxopiperidin-3-yl)amino]-2-fluorophenyl]piperidin-1-yl]acetyl]-4-fluoropiperidin-4-yl]ethyl]-4-oxoquinazoline] | 0.0262 µM | 8.27% | –
11 | CCN(C)S(=O)(=O)Nc1ccc(F)c(Oc2ccc3ncn(CC(C)CC4CCN(C(=O)CN5CCC(c6ccc(NC7CCC(=O)NC7=O)cc6F)CC5)CC4)c(=O)c3c2)c1C#N (stereo not shown) [Example 14, 6-[2-cyano-3-[[ethyl(methyl)sulfamoyl]amino]-6-fluorophenoxy]-3-[3-[1-[2-[4-[4-[(2,6-dioxopiperidin-3-yl)amino]-2-fluorophenyl]piperidin-1-yl]acetyl]piperidin-4-yl]-2-methylpropyl]-4-oxoquinazoline] | 0.0125 µM | – | 8.11%
12 | CCN(C)S(=O)(=O)Nc1ccc(F)c(Oc2ccc3ncn(CCCC4(F)CCN(C(=O)CN5CCC(c6ccc(NC7CCC(=O)NC7=O)cc6F)CC5)CC4)c(=O)c3c2)c1C#N (stereo not shown) [Example 15, 6-[2-cyano-3-[[ethyl(methyl)sulfamoyl]amino]-6-fluorophenoxy]-3-[3-[1-[2-[4-[4-[(2,6-dioxopiperidin-3-yl)amino]-2-fluorophenyl]piperidin-1-yl]acetyl]-4-fluoropiperidin-4-yl]propyl]-4-oxoquinazoline] | 0.0111 µM | 7.29% | –
13 | CCN(C)S(=O)(=O)Nc1ccc(F)c(Oc2ccc3ncn(-c4cnn(C5CCN(C(=O)CN6CCC(c7ccc(NC8CCC(=O)NC8=O)cc7F)CC6)CC5)c4)c(=O)c3c2)c1C#N (stereo not shown) [Example 16, 6-[2-cyano-3-[[ethyl(methyl)sulfamoyl]amino]-6-fluorophenoxy]-3-[1-[1-[2-[4-[4-[(2,6-dioxopiperidin-3-yl)amino]-2-fluorophenyl]piperidin-1-yl]acetyl]piperidin-4-yl]pyrazol-4-yl]-4-oxoquinazoline] | 0.0205 µM | 15.5% | –
14 | CCN(C)S(=O)(=O)Nc1ccc(F)c(Oc2ccc3ncn(-c4cnn(C5CCN(C(=O)CN6CCC(c7ccc(C8CCC(=O)NC8=O)cc7F)CC6)CC5)c4)c(=O)c3c2)c1C#N (stereo not shown) [Example 17, 6-[2-cyano-3-[[ethyl(methyl)sulfamoyl]amino]-6-fluorophenoxy]-3-[1-[1-[2-[4-[4-(2,6-dioxopiperidin-3-yl)-2-fluorophenyl]piperidin-1-yl]acetyl]piperidin-4-yl]pyrazol-4-yl]-4-oxoquinazoline] | 0.044 µM | 20.7% | –

From patent US12486253B2, “Therapeutics for the degradation of mutant BRAF” (C4 THERAPEUTICS, INC., priority 2021, dated 2025)
